Test results from patent US6297237A, “Process for the preparation of aminocarbonyl derivatives of geneseroline having selective brain anticholinesterase activity” (priority 1997, dated 2001).
Counter-ions that a name gives are not always drawn. Like-named read-outs stand apart in the source and are kept apart here.

Key:
heart AChE = test: Inhibition kinetics of heart AChE after oral administration (Table 2); assay type: in vivo; settings: p.o. at 1/7 LD50: CHF 2060 10, CHF 2819 1.3, CHF 2822 2.5, CHF 2957 9 mg/kg; 1, 4, 16 h; rat
Protocol: (§1) In a preferred embodiment of the present invention, compounds CHF 2819, CHF 2957, CHF 2822 were evaluated for their enzymatic inhibition potency and selectivity of action through a series of parameters in comparison with n-heptylaminocarbonylgeneseroline hydrochloride (CHF2060).
(§2) Male SD rats weighing 150-200 g were split into groups of 8 animals each, depending on the treatment with the different substances, which were orally administered in distilled water, at a volume of 2 ml/kg. After 2 hours from the administration, the animals were sacrificed as to take their brains. Brain tissue was homogenized in a […] solution in 0.1 M phosphate buffer at pH 8. After 15 minutes centrifugation, at 4° C., the supernatant was separated and AChE was determined on it with the method described by ElIman G. L. et al. (Biochem Pharmacol. 7, 88-95, 1961). For each treatment enzyme inhibition percent was determined against controls (animals treated with distilled water only).
(§3) Another series of experiments was performed in order to determine inhibition kinetics of brain and heart AChE after 1, 4 and 16 hours from administration of each tested substance. Enzyme was assayed on tissue homogenates similarly to what above described. […] Area Under Curve (AUC) was calculated by means of the enzymatic inhibition curve, for brain and heart tissue, related to the three test times.

brain AChE [1] = target: T1, brain AChE (Rattus norvegicus, UniProt P37136); test: Rat brain AChE inhibition ex vivo after oral administration (Table 1); assay type: in vivo; settings: for ED50: read-out: ED50 (dose of compound to inhibit 50% of the enzyme), p.o., brain AChE, C.L. 95% given; for inhibition at 3 mg/kg: 3 mg/kg p.o.; for Potency relative to CHF 2060: inhibition of AChE after oral administration in rat
T1 construct: from tissue; host or cells: rat brain (male SD rats), homogenate in Triton/phosphate buffer, supernatant
Protocol: as §1, §2

human plasma BuChE = target: T2, human plasma BuChE (Homo sapiens, UniProt P06276); test: In vitro inhibition of human plasma BuChE (Table 3); assay type: biochemical; settings: for IC50: human plasma BuChE, n = 4-8, read-out: BuChE IC50 (μM) ± s.e.
T2 construct: human plasma BuChE; from tissue; host or cells: human plasma

brain AChE [2] = target: T1, brain AChE; test: Inhibition kinetics of brain AChE after oral administration (Table 2); assay type: in vivo; settings: for selectivity index*: Brain AUC/Heart AUC; for selectivity index* / brain AUC (% inhib · xh) / inhibition at 9 mg/kg: p.o. at 1/7 LD50: CHF 2060 10, CHF 2819 1.3, CHF 2822 2.5, CHF 2957 9 mg/kg, rat; for brain AUC (% inhib · xh) / inhibition at 9 mg/kg: 1, 4, 16 h; for inhibition at 9 mg/kg: po, read-out: brain AChE maximum % inhibition
Protocol: as §1, §2, §3

erythrocyte AChE = target: T3, erythrocyte AChE (Homo sapiens, UniProt P22303); test: In vitro inhibition of erythrocyte AChE (Table 3); assay type: biochemical; settings: for IC50: erythrocyte AChE, n = 4-8, read-out: AChE IC50 (μM) ± s.e.; for S.I.: selectivity index (IC50 BuChE/IC50 AChE)
T3 construct: from tissue

[3] = test system: brain acetylcholinesterase (AChE); settings: European patent 0599890; cited from earlier work

T1 sequence (P37136 32-614): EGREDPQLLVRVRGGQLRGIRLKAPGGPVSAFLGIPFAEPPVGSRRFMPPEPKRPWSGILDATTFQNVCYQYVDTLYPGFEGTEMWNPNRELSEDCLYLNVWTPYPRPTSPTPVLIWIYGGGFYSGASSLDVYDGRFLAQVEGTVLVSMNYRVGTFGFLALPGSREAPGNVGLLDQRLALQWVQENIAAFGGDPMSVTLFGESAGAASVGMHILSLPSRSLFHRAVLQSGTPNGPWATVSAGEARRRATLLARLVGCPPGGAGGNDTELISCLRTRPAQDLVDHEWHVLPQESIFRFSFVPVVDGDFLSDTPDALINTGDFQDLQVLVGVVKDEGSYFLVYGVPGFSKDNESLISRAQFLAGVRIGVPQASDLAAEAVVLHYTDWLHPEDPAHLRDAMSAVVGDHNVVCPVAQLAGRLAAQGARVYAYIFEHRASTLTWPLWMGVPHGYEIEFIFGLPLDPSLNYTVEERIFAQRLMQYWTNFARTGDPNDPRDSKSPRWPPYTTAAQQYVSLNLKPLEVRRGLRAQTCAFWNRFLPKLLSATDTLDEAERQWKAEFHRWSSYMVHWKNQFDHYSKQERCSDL
T3 sequence (P22303 other isoform, or with tags, fused parts or gaps): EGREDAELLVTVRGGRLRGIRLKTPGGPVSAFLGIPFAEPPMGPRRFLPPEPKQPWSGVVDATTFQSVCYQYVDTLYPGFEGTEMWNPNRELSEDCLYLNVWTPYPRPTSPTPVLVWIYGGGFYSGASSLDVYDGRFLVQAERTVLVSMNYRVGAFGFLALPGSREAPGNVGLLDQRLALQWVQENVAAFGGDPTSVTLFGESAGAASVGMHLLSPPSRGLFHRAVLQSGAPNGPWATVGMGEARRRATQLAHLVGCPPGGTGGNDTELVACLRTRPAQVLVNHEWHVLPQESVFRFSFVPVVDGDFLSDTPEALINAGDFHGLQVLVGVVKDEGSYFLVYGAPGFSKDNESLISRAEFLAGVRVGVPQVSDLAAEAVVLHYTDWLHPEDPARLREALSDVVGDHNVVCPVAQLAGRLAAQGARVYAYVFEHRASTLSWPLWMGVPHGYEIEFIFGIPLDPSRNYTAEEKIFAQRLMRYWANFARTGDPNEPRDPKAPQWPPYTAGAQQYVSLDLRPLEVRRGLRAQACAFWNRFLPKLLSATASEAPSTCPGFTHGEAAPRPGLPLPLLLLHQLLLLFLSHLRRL
T2 sequence (P06276 29-602): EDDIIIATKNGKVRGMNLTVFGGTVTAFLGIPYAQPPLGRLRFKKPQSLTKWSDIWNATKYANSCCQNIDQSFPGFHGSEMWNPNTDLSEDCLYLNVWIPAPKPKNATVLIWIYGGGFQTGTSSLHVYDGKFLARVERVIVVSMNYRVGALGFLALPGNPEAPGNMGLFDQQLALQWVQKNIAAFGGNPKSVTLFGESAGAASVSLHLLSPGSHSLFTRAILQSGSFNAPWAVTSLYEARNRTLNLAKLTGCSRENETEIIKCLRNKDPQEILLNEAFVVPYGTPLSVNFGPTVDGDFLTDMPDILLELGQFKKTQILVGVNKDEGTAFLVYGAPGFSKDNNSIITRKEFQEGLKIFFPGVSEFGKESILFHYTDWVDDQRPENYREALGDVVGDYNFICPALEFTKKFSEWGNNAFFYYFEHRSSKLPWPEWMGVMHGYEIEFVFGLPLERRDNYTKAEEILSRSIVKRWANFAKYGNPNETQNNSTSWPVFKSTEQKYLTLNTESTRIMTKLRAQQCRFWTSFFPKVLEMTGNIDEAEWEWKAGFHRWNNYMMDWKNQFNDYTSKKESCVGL

In the case of `CCCCCCCNC(=O)Oc1ccc2c(c1)[C@]1(C)CCN(C)OC1N2C` (stereo partly shown) [CHF 2060, n-heptylaminocarbonylgeneseroline hydrochloride, reference compound], the “Heart AChE maximum % inhibition” value (heart AChE) is reported as 41%, the “Heart AUC (% inhib · xh)” value (heart AChE) is reported as 450 % inhib · xh and the “Potency order (*)” value (brain AChE [1]) is reported as 1. The ED50 (brain AChE [1]; po, rat, 2 h) was 13.2 mg/kg, the inhibition at 3 mg/kg (brain AChE [1]; rat, po, 2 h, SD rats) was 8% and the inhibition at 10 mg/kg (brain AChE [1]; rat, po, 10 mg/kg p.o., 2 h, SD rats) was 29%. The inhibition at 30 mg/kg (brain AChE [1]; rat, po, 30 mg/kg p.o., 2 h, SD rats) was 60%, the “BuChE inhibition relative to AChE (in words)” value (human plasma BuChE) was “definitely more potent in inhibiting BuChE, rather than AChE” and the IC50 (human plasma BuChE) was 0.005 ± 0.0007 µM. For the same compound, the “selectivity index*” value (brain AChE [2]) was 0.6, the “brain AUC (% inhib · xh)” value (brain AChE [2]) was 252 % inhib · xh and the inhibition at 9 mg/kg (brain AChE [2]) was 20%. For the same compound, the IC50 (erythrocyte AChE; in vitro) was 0.85 ± 0.08 µM, the S.I. (erythrocyte AChE) was 0.005 and the “brain acetylcholinesterase inhibition, duration (in words)” value [3] was “inhibitor of brain acetylcholinesterase characterised by a long action”.

With `CCc1ccccc1NC(=O)Oc1ccc2c(c1)[C@]1(C)CCN(C)OC1N2C` (stereo partly shown) [CHF 2819, n-(2-ethylphenyl)aminocarbonylgeneseroline hydrochloride] the “Heart AChE maximum % inhibition” value (heart AChE) was 4%, the “Heart AUC (% inhib · xh)” value (heart AChE) was 36 % inhib · xh and the “Potency relative to CHF 2060” value (brain AChE [1]) was 8 times. The ED50 (brain AChE [1]; po, rat, 2 h) was 1.5 mg/kg, the “Potency order (*)” value (brain AChE [1]; rat p.o., CHF 2060 = 1) was 8 and the inhibition at 0.4 mg/kg (brain AChE [1]; rat, po, 0.4 mg/kg p.o., 2 h, SD rats) was 9%. It also gave an inhibition at 1.3 mg/kg (brain AChE [1]; rat, po, 1.3 mg/kg p.o., 2 h, SD rats) of 34%, an inhibition at 3.7 mg/kg (brain AChE [1]; rat, po, 3.7 mg/kg p.o., 2 h, SD rats) of 55% and an IC50 (human plasma BuChE) of 55.2 ± 6.43 µM. For the same compound, the “selectivity index*” value (brain AChE [2]) was 9.7, the “in vivo selectivity in inhibiting brain AChE (in words)” value (brain AChE [2]; brain versus heart/peripheral) was “"in vivo" selectivity in inhibiting brain AChE” and the “duration of action (in words)” value (brain AChE [2]; in vivo) was “good duration of action”. The “brain AUC (% inhib · xh)” value (brain AChE [2]) was 348 % inhib · xh, the “selectivity AChE versus BuChE (in words)” value (erythrocyte AChE; in vitro) was “favourable "in vitro" selectivity on AChE with respect to BuChE” and the “selectivity on AChE” value (erythrocyte AChE; in vitro, AChE versus BuChE, from selectivity index) was 115 times. It also gave an IC50 (erythrocyte AChE; in vitro) of 0.48 ± 0.06 µM and a S.I. (erythrocyte AChE) of 115.

In the case of `Cc1ccccc1NC(=O)Oc1ccc2c(c1)[C@]1(C)CCN(C)OC1N2C` (stereo partly shown) [CHF 2822, n-(2-methylphenyl)aminocarbonylgeneseroline hydrochloride], the “Heart AChE maximum % inhibition” value (heart AChE) is reported as 9%, the “Heart AUC (% inhib · xh)” value (heart AChE) is reported as 96 % inhib · xh and the “Potency relative to CHF 2060” value (brain AChE [1]) is reported as 7 times. The ED50 (brain AChE [1]; po, rat, 2 h) was 1.6 mg/kg, the “Potency order (*)” value (brain AChE [1]; rat p.o., CHF 2060 = 1) was 7 and the inhibition at 0.8 mg/kg (brain AChE [1]; rat, po, 0.8 mg/kg p.o., 2 h, SD rats) was 25%. It also gave an inhibition at 2.5 mg/kg (brain AChE [1]; rat, po, 2.5 mg/kg p.o., 2 h, SD rats) of 46%, an inhibition at 7.5 mg/kg (brain AChE [1]; rat, po, 7.5 mg/kg p.o., 2 h, SD rats) of 68% and an IC50 (human plasma BuChE) of 0.18 ± 0.01 µM. The “selectivity index*” value (brain AChE [2]) was 3.9, the “brain AUC (% inhib · xh)” value (brain AChE [2]) was 379 % inhib · xh and the “selectivity AChE versus BuChE (in words)” value (erythrocyte AChE; in vitro) was “slightly less selective”. It also gave an IC50 (erythrocyte AChE; in vitro) of 2.01 ± 0.08 µM and a S.I. (erythrocyte AChE) of 0.09.

With `Cc1cccc(NC(=O)Oc2ccc3c(c2)[C@]2(C)CCN(C)OC2N3C)c1` (stereo partly shown) [CHF 2957, n-(3-methylphenyl)aminocarbonylgeneseroline hydrochloride] the “Heart AChE maximum % inhibition” value (heart AChE) was 13%, the “Heart AUC (% inhib · xh)” value (heart AChE) was 125 % inhib · xh and the “Potency relative to CHF 2060” value (brain AChE [1]) was 3 times. For the same compound, the ED50 (brain AChE [1]; po, rat, 2 h) was 4.1 mg/kg, the “Potency order (*)” value (brain AChE [1]; rat p.o., CHF 2060 = 1) was 3 and the inhibition at 3 mg/kg (brain AChE [1]; rat, po, 2 h, SD rats) was 21%. The inhibition at 6 mg/kg (brain AChE [1]; rat, po, 6 mg/kg p.o., 2 h, SD rats) was 56%, the inhibition at 9 mg/kg (brain AChE [1]; rat, po, 9 mg/kg p.o., 2 h, SD rats) was 67% and the IC50 (human plasma BuChE) was 134 ± 9.7 µM. For the same compound, the “selectivity index*” value (brain AChE [2]) was 4.7, the “brain AUC (% inhib · xh)” value (brain AChE [2]) was 585 % inhib · xh and the inhibition at 9 mg/kg (brain AChE [2]) was 62%. The “selectivity AChE versus BuChE (in words)” value (erythrocyte AChE; in vitro) was “good selectivity”, the IC50 (erythrocyte AChE; in vitro) was 4.2 ± 0.29 µM and the S.I. (erythrocyte AChE) was 32.

For `CNC(=O)Oc1ccc2c(c1)[C@]1(C)CCN(C)[C@@H]1N2C` [Physostigmine, reference compound], the S.I. (erythrocyte AChE) was 0.27.

In the case of `CCN(C)C(=O)Oc1cccc([C@H](C)N(C)C)c1` [SDZ-ENA 713, reference compound], the “AChE affinity / activity (in words)” value (erythrocyte AChE; in vitro, evaluated as IC50) is reported as “less active than other products” and the S.I. (erythrocyte AChE) is reported as 0.007.
